Experimental data taken from PubChem BioAssay AID2060625 (Molecular Pharmacology Branch, DTP, NCI, 2025).
Where “and” joins values, the source holds several entries; their conditions need not be identical. Equal entries are not always repeated.

Tested on: 186277-243-T-J2-PDC spheroids with HUVEC/MSC, viability
Assay: Anticancer human tumor 186277-243-T-J2-PDC patient-derived colon adenocarcinoma cell line growth inhibition [CLK]
Details: for viability, T/C: stronger effect = lower value
Procedure, shortened: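 Multi-cell-type spheroids combined patient-derived tumor cells with HUVEC endothelial cells and human mesenchymal stem cells. Paired agents were dosed in half-log steps down from about clinical Cmax, or from 10 microM where Cmax was unknown.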

[1] = curve of first compound, second compound 0.0316 µM
[2] = curve of first compound, second compound 0.1 µM
[3] = curve of first compound, second compound 0.316 µM
[4] = curve of first compound, second compound 1 µM
[5] = curve of first compound, second compound 3.16 µM
[6] = curve of first compound, second compound 10 µM
[7] = second compound 0.0316 µM, first compound 0.0316 µM
[8] = second compound 0.0316 µM, first compound 0.1 µM
[9] = second compound 0.0316 µM, first compound 0.316 µM
[10] = second compound 0.0316 µM, first compound 1 µM
[11] = second compound 0.1 µM, first compound 0.0316 µM
[12] = second compound 0.1 µM, first compound 0.1 µM
[13] = second compound 0.1 µM, first compound 0.316 µM
[14] = second compound 0.1 µM, first compound 1 µM
[15] = second compound 0.316 µM, first compound 0.0316 µM
[16] = second compound 0.316 µM, first compound 0.1 µM
[17] = second compound 0.316 µM, first compound 0.316 µM
[18] = second compound 0.316 µM, first compound 1 µM
[19] = second compound 1 µM, first compound 0.0316 µM
[20] = second compound 1 µM, first compound 0.1 µM
[21] = second compound 1 µM, first compound 0.316 µM
[22] = second compound 1 µM, first compound 1 µM
[23] = second compound 3.16 µM, first compound 0.0316 µM
[24] = second compound 3.16 µM, first compound 0.1 µM
[25] = second compound 3.16 µM, first compound 0.316 µM
[26] = second compound 3.16 µM, first compound 1 µM
[27] = second compound 10 µM, first compound 0.0316 µM
[28] = second compound 10 µM, first compound 0.1 µM
[29] = second compound 10 µM, first compound 0.316 µM
[30] = second compound 10 µM, first compound 1 µM
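Also: compound exposure lasted seven days before readout.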
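For viability, T/C in this document: 100% = DMSO vehicle control wells.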

CC1(C)CCC(CN2CCN(c3ccc(C(=O)NS(=O)(=O)c4ccc(NCC5CCOCC5)c([N+](=O)[O-])c4)c(Oc4cnc5[nH]ccc5c4)c3)CC2)=C(c2ccc(Cl)cc2)C1 + CNC(=O)c1ccc(Nc2nc(OC3CCCC3)c3c(-c4ccc5nc(C)oc5c4)c[nH]c3n2)c(OC)c1
IC50 [1]: 6100 nM | IC50 [2]: 4370 nM | IC50 [3]: 1740 nM | IC50 [4]: < 31.6 nM | IC50 [5]: < 31.6 nM | IC50 [6]: < 31.6 nM | viability, T/C [7]: 110% | viability, T/C [8]: 109% | viability, T/C [9]: 102% | viability, T/C [10]: 102% | viability, T/C (second compound 0.0316 µM, first compound 3.16 µM): 119% | viability, T/C (second compound 0.0316 µM, first compound 10 µM): 6.08% | viability, T/C [11]: 81.6% | viability, T/C [12]: 82% | viability, T/C [13]: 85.8% | viability, T/C [14]: 80% | viability, T/C (second compound 0.1 µM, first compound 3.16 µM): 67.9% | viability, T/C (second compound 0.1 µM, first compound 10 µM): 4.37% | viability, T/C [15]: 53.1% | viability, T/C [16]: 57.5% | viability, T/C [17]: 58.4% | viability, T/C [18]: 56.8% | viability, T/C (second compound 0.316 µM, first compound 3.16 µM): 43.2% | viability, T/C (second compound 0.316 µM, first compound 10 µM): 6.45% | viability, T/C [19]: 36.1% | viability, T/C [20]: 35.2% | viability, T/C [21]: 37.5% | viability, T/C [22]: 39.9% | viability, T/C (second compound 1 µM, first compound 3.16 µM): 33.1% | viability, T/C (second compound 1 µM, first compound 10 µM): 4.39% | viability, T/C [23]: 35.9% | viability, T/C [24]: 34.6% | viability, T/C [25]: 35.1% | viability, T/C [26]: 37.6% | viability, T/C (second compound 3.16 µM, first compound 3.16 µM): 32.1% | viability, T/C (second compound 3.16 µM, first compound 10 µM): 3.97% | viability, T/C [27]: 34.7% | viability, T/C [28]: 30.6% | viability, T/C [29]: 40.3% | viability, T/C [30]: 36% | viability, T/C (second compound 10 µM, first compound 3.16 µM): 35.9% | viability, T/C (second compound 10 µM, first compound 10 µM): 6.13%

CCN1CCN(Cc2ccc(Nc3ncc(F)c(-c4cc(F)c5nc(C)n(C(C)C)c5c4)n3)nc2)CC1 + CN1CCN(c2cc(C(=O)Nc3cc4cc(-c5cnn(C)c5)ccc4cn3)ccn2)CC1
IC50 [1]: > 1000 nM | IC50 [2]: > 1000 nM | IC50 [3]: < 3.16 nM | IC50 [4]: < 3.16 nM | IC50 [5]: < 3.16 nM | IC50 [6]: < 3.16 nM | viability, T/C (second compound 0.0316 µM, first compound 0.00316 µM): 85.5% | viability, T/C (second compound 0.0316 µM, first compound 0.01 µM): 79.4% | viability, T/C [7]: 95.7% | viability, T/C [8]: 103% | viability, T/C [9]: 99% | viability, T/C [10]: 102% | viability, T/C (second compound 0.1 µM, first compound 0.00316 µM): 78.9% | viability, T/C (second compound 0.1 µM, first compound 0.01 µM): 100% | viability, T/C [11]: 91.4% | viability, T/C [12]: 79.5% | viability, T/C [13]: 71.9% | viability, T/C [14]: 69.3% | viability, T/C (second compound 0.316 µM, first compound 0.00316 µM): 25.5% | viability, T/C (second compound 0.316 µM, first compound 0.01 µM): 32.6% | viability, T/C [15]: 28.9% | viability, T/C [16]: 29.9% | viability, T/C [17]: 36.8% | viability, T/C [18]: 31.8% | viability, T/C (second compound 1 µM, first compound 0.00316 µM): 0.99% | viability, T/C (second compound 1 µM, first compound 0.01 µM): 0.98% | viability, T/C [19]: 0.48% | viability, T/C [20]: 0.4% | viability, T/C [21]: 1.43% | viability, T/C [22]: 1.19% | viability, T/C (second compound 3.16 µM, first compound 0.00316 µM): 2.53% | viability, T/C (second compound 3.16 µM, first compound 0.01 µM): 1.22% | viability, T/C [23]: 0.9% | viability, T/C [24]: 1.58% | viability, T/C [25]: 1.39% | viability, T/C [26]: 2.07% | viability, T/C (second compound 10 µM, first compound 0.00316 µM): 0.79% | viability, T/C (second compound 10 µM, first compound 0.01 µM): 0.62% | viability, T/C [27]: 1.4% | viability, T/C [28]: 1.82% | viability, T/C [29]: 0.83% | viability, T/C [30]: 0.55%

CN1CCN(c2cc(C(=O)Nc3cc4cc(-c5cnn(C)c5)ccc4cn3)ccn2)CC1
viability, T/C (compound 0.316 µM): 23.7% [middle of 11 runs] | viability, T/C (compound 1 µM): 0.99% [middle of 10 runs] | viability, T/C (compound 3.16 µM): 1.22% [middle of 11 runs] | viability, T/C (compound 10 µM): 1.7% [middle of 11 runs] | IC50 (compound alone, run of 08/14/2023): 192 nM [middle of 11 runs]

CCCS(=O)(=O)Nc1ccc(F)c(C(=O)c2c[nH]c3ncc(-c4ccc(Cl)cc4)cc23)c1F
viability, T/C (compound 0.0316 µM): 97.7% and 105% | viability, T/C (compound 0.1 µM): 87.2% and 89.4% | viability, T/C (compound 0.316 µM): 113% and 109% | viability, T/C (compound 1 µM): 104% and 88.5% | viability, T/C (compound 3.16 µM): 120% and 94% | viability, T/C (compound 10 µM): 82.3% and 88% | IC50 (curve of compound): > 10000 nM

CC(C)CC(NC(=O)C(Cc1ccccc1)NC(=O)c1cnccn1)B(O)O (stereo not drawn) + CNC(=O)c1ccc(Nc2nc(OC3CCCC3)c3c(-c4ccc5nc(C)oc5c4)c[nH]c3n2)c(OC)c1
IC50 [1]: 3.74 nM | IC50 [2]: 1.79 nM | IC50 [3]: 1.03 nM | IC50 [4]: < 0.949 nM | IC50 [5]: < 0.949 nM | IC50 [6]: < 0.949 nM | viability, T/C (second compound 0.0316 µM, first compound 0.000949 µM): 112% | viability, T/C (second compound 0.0316 µM, first compound 0.003 µM): 60.9% | viability, T/C (second compound 0.0316 µM, first compound 0.00949 µM): 4.41% | viability, T/C (second compound 0.0316 µM, first compound 0.03 µM): 2.07% | viability, T/C (second compound 0.0316 µM, first compound 0.0949 µM): 3.06% | viability, T/C (second compound 0.0316 µM, first compound 0.3 µM): 2.24% | viability, T/C (second compound 0.1 µM, first compound 0.000949 µM): 77.7% | viability, T/C (second compound 0.1 µM, first compound 0.003 µM): 27.6% | viability, T/C (second compound 0.1 µM, first compound 0.00949 µM): 3.68% | viability, T/C (second compound 0.1 µM, first compound 0.03 µM): 1.91% | viability, T/C (second compound 0.1 µM, first compound 0.0949 µM): 2.97% | viability, T/C (second compound 0.1 µM, first compound 0.3 µM): 2.4% | viability, T/C (second compound 0.316 µM, first compound 0.000949 µM): 52.8% | viability, T/C (second compound 0.316 µM, first compound 0.003 µM): 13.1% | viability, T/C (second compound 0.316 µM, first compound 0.00949 µM): 2.31% | viability, T/C (second compound 0.316 µM, first compound 0.03 µM): 2.27% | viability, T/C (second compound 0.316 µM, first compound 0.0949 µM): 1.45% | viability, T/C (second compound 0.316 µM, first compound 0.3 µM): 0.89% | viability, T/C (second compound 1 µM, first compound 0.000949 µM): 36.5% | viability, T/C (second compound 1 µM, first compound 0.003 µM): 3.94% | viability, T/C (second compound 1 µM, first compound 0.00949 µM): 2.3% | viability, T/C (second compound 1 µM, first compound 0.03 µM): 2.6% | viability, T/C (second compound 1 µM, first compound 0.0949 µM): 4.22% | viability, T/C (second compound 1 µM, first compound 0.3 µM): 2.48% | viability, T/C (second compound 3.16 µM, first compound 0.000949 µM): 33.3% | viability, T/C (second compound 3.16 µM, first compound 0.003 µM): 2.4% | viability, T/C (second compound 3.16 µM, first compound 0.00949 µM): 0.9% | viability, T/C (second compound 3.16 µM, first compound 0.03 µM): 2.14% | viability, T/C (second compound 3.16 µM, first compound 0.0949 µM): 2.81% | viability, T/C (second compound 3.16 µM, first compound 0.3 µM): 0.81% | viability, T/C (second compound 10 µM, first compound 0.000949 µM): 40.4% | viability, T/C (second compound 10 µM, first compound 0.003 µM): 2.71% | viability, T/C (second compound 10 µM, first compound 0.00949 µM): 1.47% | viability, T/C (second compound 10 µM, first compound 0.03 µM): 4.33% | viability, T/C (second compound 10 µM, first compound 0.0949 µM): 2.67% | viability, T/C (second compound 10 µM, first compound 0.3 µM): 1.5%
